test system: ERK phosphorylation; assay: Analysis of ERK phosphorylation (Alphascreen SureFire Phospho-ERK 1/2); format: cell-based, human and mouse; conditions: cells treated for 1 h; human melanoma cells, human and mouse colon cancer cells; read-out: Minimum concentration (nM) required for ≧80% inhibition of pERK
Method: This assay was carried out with human melanoma cells, human and mouse colon cancer cells. Cells were treated for 1 h with various concentrations of test compounds. ERK phosphorylation analysis was performed using the Alphascreen SureFire Phospho-ERK 1/2 Kit (Perkin Elmer), by following the manufacturer's instructions. % inhibition of ERK phosphorylation was determined as: 100−{(RFU test−RFU lysis buffer control)/(RFU vehicle treated control−RFU lysis buffer control)}×100. Percentage inhibition at concentrations of 0.01 nM, 0.03 nM, 0.1-0.9 nM, 1 nM to 3 nM, 4-100 nM, and >100 nM, for the stated examples is setworth here. The percentage inhibition at the above depicted concentrations for the compounds stated are given in the following groups.

| SMILES | IC80 |
| --- | --- |
| Cc1c(=O)n(C)c(Nc2ccc(I)cc2F)c2c(=O)[nH]c(=O)n(-c3cccc(C(O)C(N)=O)c3)c12 (stereo not shown) [Compound 14, 2-(3-(5-((2-fluoro-4-iodophenyl)amino)-6,8-dimethyl-2,4,7-trioxo-3,4,6,7-tetrahydropyrido[4,3-d]pyrimidin-1(2H)-yl)phenyl)-2-hydroxyacetamide] | 4 to 100 nM |
| Cc1c(=O)n(C)c(Nc2ccc(I)cc2F)c2c(=O)n(C3CC3)c(=O)n(-c3cccc(CC(=O)N4CC(O)C4)c3)c12 [Compound 33, 3-cyclopropyl-5-((2-fluoro-4-iodophenyl)amino)-1-(3-(2-(3-hydroxyazetidin-1-yl)-2-oxoethyl)phenyl)-6,8-dimethylpyrido[4,3-d]pyrimidine-2,4,7(1H,3H,6H)-trione] | 1 to 3 nM |
| Cc1c(=O)n(C)c(Nc2ccc(I)cc2F)c2c(=O)n(C)c(=O)n(-c3cccc(C(O)C(N)=O)c3)c12 (stereo not shown) [Compound 47, 2-(3-(5-((2-fluoro-4-iodophenyl)amino)-3,6,8-trimethyl-2,4,7-trioxo-3,4,6,7-tetrahydropyrido[4,3-d]pyrimidin-1(2H)-yl)phenyl)-2-hydroxyacetamide] | 0.1 to 0.9 nM |
| Cc1c(=O)n(C)c(Nc2ccc(I)cc2F)c2c(=O)n(C3CC3)c(=O)n(-c3cccc(C(=O)N4CCS(=O)(=O)C4)c3)c12 [Compound 38, 3-cyclopropyl-1-(3-(1,1-dioxidothiazolidine-3-carbonyl)phenyl)-5-((2-fluoro-4-iodophenyl)amino)-6,8-dimethylpyrido[4,3-d]pyrimidine-2,4,7(1H,3H,6H)-trione] | 0.1 to 0.9 nM |
| Cc1c(=O)n(C)c(Nc2ccc(I)cc2F)c2c(=O)n(C)c(=O)n(-c3cccc(CC(=O)N(C)C)c3)c12 [Compound 44, 2-(3-(5-((2-fluoro-4-iodophenyl)amino)-3,6,8-trimethyl-2,4,7-trioxo-3,4,6,7-tetra hydropyrido[4,3-d]pyrimidin-1(2H)-yl)phenyl)-N,N-dimethylacetamide] | 0.1 to 0.9 nM |
| Cc1c(=O)n(C)c(Nc2ccc(I)cc2F)c2c(=O)n(C)c(=O)n(-c3cccc(CCC(N)=O)c3)c12 [Compound 68, 3-(3-(5-((2-fluoro-4-iodophenyl)amino)-3,6,8-trimethyl-2,4,7-trioxo-3,4,6,7-tetrahydropyrido[4,3-d]pyrimidin-1(2H)-yl)phenyl)propanamide] | 1 to 3 nM |
| Cc1c(=O)n(C)c(Nc2ccc(I)cc2F)c2c(=O)n(C)c(=O)n(-c3cccc(C(=O)N4CCOCC4)c3)c12 [Compound 63, 5-((2-fluoro-4-iodophenyl)amino)-3,6,8-trimethyl-1-(3-(morpholine-4-carbonyl)phenyl)pyrido[4,3-d]pyrimidine-2,4,7(1H,3H,6H)-trione] | 1 to 3 nM |
| Cc1c(=O)n(C)c(Nc2ccc(I)cc2F)c2c(=O)[nH]c(=O)n(-c3cccc(CC(=O)N(C)C)c3)c12 [Compound 10, 2-(3-(5-((2-fluoro-4-iodophenyl)amino)-6,8-dimethyl-2,4,7-trioxo-3,4,6,7-tetrahydropyrido[4,3-d]pyrimidin-1(2H)-yl)phenyl)-N,N-dimethylacetamide] | 0.1 to 0.9 nM |
| Cc1c(=O)n(C)c(Nc2ccc(I)cc2F)c2c(=O)n(C3CC3)c(=O)n(-c3cccc(C(=O)N4CCCC4)c3)c12 [Compound 27, 3-cyclopropyl-5-((2-fluoro-4-iodophenyl)amino)-6,8-dimethyl-1-(3-(pyrrolidine-1-carbonyl)phenyl)pyrido[4,3-d]pyrimidine-2,4,7(1H,3H,6H)-trione] | 1 to 3 nM |
| Cc1c(=O)n(C)c(Nc2ccc(I)cc2F)c2c(=O)n(C)c(=O)n(-c3cccc(CC(=O)NC4COC4)c3)c12 [Compound 50, 2-(3-(5-((2-fluoro-4-iodophenyl)amino)-3,6,8-trimethyl-2,4,7-trioxo-3,4,6,7-tetrahydropyrido[4,3-d]pyrimidin-1(2H)-yl)phenyl)-N-(oxetan-3-yl)acetamide] | 4 to 100 nM |
| Cc1c(=O)n(C)c(Nc2ccc(I)cc2F)c2c(=O)n(C)c(=O)n(-c3cccc(CC(=O)N4CCC4)c3)c12 [Compound 46, 1-(3-(2-(azetidin-1-yl)-2-oxoethyl)phenyl)-5-((2-fluoro-4-iodophenyl)amino)-3,6,8-trimethylpyrido[4,3-d]pyrimidine-2,4,7(1H,3H,6H)-trione] | 0.01 nM |
| Cc1c(=O)n(C)c(Nc2ccc(I)cc2F)c2c(=O)[nH]c(=O)n(-c3cccc(CCC(N)=O)c3)c12 [Compound 1, 3-(3-(5-((2-fluoro-4-iodophenyl)amino)-6,8-dimethyl-2,4,7-trioxo-3,4,6,7-tetrahydropyrido[4,3-d]pyrimidin-1(2H)-yl)phenyl)propanamide] | 1 to 3 nM |
| Cc1c(=O)n(C)c(Nc2ccc(I)cc2F)c2c(=O)n(C)c(=O)n(-c3cccc(C(=O)NC4CC4)c3)c12 [Compound 54, N-cyclopropyl-3-(5-((2-fluoro-4-iodophenyl)amino)-3,6,8-trimethyl-2,4,7-trioxo-3,4,6,7-tetrahydropyrido[4,3-d]pyrimidin-1(2H)-yl)benzamide] | 1 to 3 nM |
| Cc1c(=O)n(C)c(Nc2ccc(I)cc2F)c2c(=O)n(C(F)F)c(=O)n(-c3cccc(C(=O)NC4CC4)c3)c12 [Compound 72, N-cyclopropyl-3-(3-(difluoromethyl)-5-((2-fluoro-4-iodophenyl)amino)-6,8-dimethyl-2,4,7-trioxo-3,4,6,7-tetrahydropyrido[4,3-d]pyrimidin-1(2H)-yl)benzamide] | 4 to 100 nM |
| Cc1c(=O)n(C)c(Nc2ccc(I)cc2F)c2c(=O)[nH]c(=O)n(-c3cccc(CC(=O)NC4CC4)c3)c12 [Compound 4, N-cyclopropyl-2-(3-(5-((2-fluoro-4-iodophenyl)amino)-6,8-dimethyl-2,4,7-trioxo-3,4,6,7-tetrahydropyrido[4,3-d]pyrimidin-1(2H)-yl)phenyl)acetamide] | 1 to 3 nM |
| CNC(=O)CCc1cccc(-n2c(=O)[nH]c(=O)c3c(Nc4ccc(I)cc4F)n(C)c(=O)c(C)c32)c1 [Compound 15, 3-(3-(5-((2-fluoro-4-iodophenyl)amino)-6,8-dimethyl-2,4,7-trioxo-3,4,6,7-tetrahydropyrido[4,3-d]pyrimidin-1(2H)-yl)phenyl)-N-methylpropanamide] | 1 to 3 nM |
| Cc1c(=O)n(C)c(Nc2ccc(I)cc2F)c2c(=O)[nH]c(=O)n(-c3cccc(C(=O)N4CCS(=O)(=O)C4)c3)c12 [Compound 17, 1-(3-(1,1-dioxidothiazolidine-3-carbonyl)phenyl)-5-((2-fluoro-4-iodophenyl)amino)-6,8-dimethylpyrido[4,3-d]pyrimidine-2,4,7(1H,3H,6H)-trione] | 0.1 to 0.9 nM |
| Cc1c(=O)n(C)c(Nc2ccc(I)cc2F)c2c(=O)n(C3CC3)c(=O)n(-c3cccc(C(C)(C)C(N)=O)c3)c12 [Compound 28, 2-(3-(3-cyclopropyl-5-((2-fluoro-4-iodophenyl)amino)-6,8-dimethyl-2,4,7-trioxo-3,4,6,7-tetrahydropyrido[4,3-d]pyrimidin-1(2H)-yl)phenyl)-2-methylpropanamide] | 0.1 to 0.9 nM |
| CCn1c(=O)c2c(Nc3ccc(I)cc3F)n(C)c(=O)c(C)c2n(-c2cccc(CCC(N)=O)c2)c1=O [Compound 61, 3-(3-(3-ethyl-5-((2-fluoro-4-iodophenyl)amino)-6,8-dimethyl-2,4,7-trioxo-3,4,6,7-tetrahydropyrido[4,3-d]pyrimidin-1(2H)-yl)phenyl)propanamide] | 1 to 3 nM |
| Cc1c(Nc2ccc(I)cc2F)c2c(=O)[nH]c(=O)n(-c3cccc(C(F)(F)C(N)=O)c3)c2n(C)c1=O [Compound 11, 2,2-difluoro-2-(3-(5-((2-fluoro-4-iodophenyl)amino)-6,8-dimethyl-2,4,7-trioxo-3,4,7,8-tetrahydropyrido[2,3-d]pyrimidin-1(2H)-yl)phenyl)acetamide] | 0.1 to 0.9 nM |
| Cc1c(=O)n(C)c(Nc2ccc(I)cc2F)c2c(=O)[nH]c(=O)n(-c3cccc(C(=O)N4CCC4)c3)c12 [Compound 3, 1-(3-(azetidine-1-carbonyl)phenyl)-5-((2-fluoro-4-iodophenyl)amino)-6,8-dimethylpyrido[4,3-d]pyrimidine-2,4,7(1H,3H,6H)-trione] | 1 to 3 nM |
| Cc1c(=O)n(C)c(Nc2ccc(I)cc2F)c2c(=O)n(C3CC3)c(=O)n(-c3cccc(C(O)C(N)=O)c3)c12 (stereo not shown) [Compound 32, 2-(3-(3-cyclopropyl-5-((2-fluoro-4-iodophenyl)amino)-6,8-dimethyl-2,4,7-trioxo-3,4,6,7-tetrahydropyrido[4,3-d]pyrimidin-1(2H)-yl)phenyl)-2-hydroxyacetamide] | 1 to 3 nM |
| CCn1c(=O)c2c(Nc3ccc(I)cc3F)n(C)c(=O)c(C)c2n(-c2cccc(C(=O)N3CCS(=O)(=O)CC3)c2)c1=O [Compound 66, 1-(3-(1,1-dioxidothiomorpholine-4-carbonyl)phenyl)-3-ethyl-5-((2-fluoro-4-iodophenyl)amino)-6,8-dimethylpyrido[4,3-d]pyrimidine-2,4,7(1H,3H,6H)-trione] | 0.01 nM |
| Cc1c(=O)n(C)c(Nc2ccc(I)cc2F)c2c(=O)n(C)c(=O)n(-c3cccc(OCC(=O)NC4CC4)c3)c12 [Compound 41, N-cyclopropyl-2-(3-(5-((2-fluoro-4-iodophenyl)amino)-3,6,8-trimethyl-2,4,7-trioxo-3,4,6,7-tetrahydropyrido[4,3-d]pyrimidin-1(2H)-yl)phenoxy)acetamide] | 0.1 to 0.9 nM |
| Cc1c(=O)n(C)c(Nc2ccc(I)cc2F)c2c(=O)n(C)c(=O)n(-c3cccc(C(=O)NC4COC4)c3)c12 [Compound 49, 3-(5-((2-fluoro-4-iodophenyl)amino)-3,6,8-trimethyl-2,4,7-trioxo-3,4,6,7-tetra hydropyrido[4,3-d]pyrimidin-1(2H)-yl)-N-(oxetan-3-yl)benzamide] | 0.01 nM |
